# From US20190210969A1, “INTRAESOPHAGEAL ADMINISTRATION OF TARGETED NITROXIDE AGENTS FOR PROTECTION AGAINST IONIZING IRRADIATION-INDUCED ESOPHAGITIS” (University of Pittsburgh - Of the Commonwealth System of …, priority 2010, published 2019)
# Test system: Lewis lung carcinoma cells (3LL)
# Assay: Irradiation of mice with orthotopic 3LL lung tumors
# Assay type: in vivo, mouse
# Text: A separate group of mice received intratracheal administration of 1×10^6 Lewis lung carcinoma cells (3LL) seven days prior to administration of JP4-039, followed immediately by excision of lung tissue to calculate JP4-039 uptake by cancer cells.
# This dose of irradiation was chosen to reduce tumor growth but was below the level required for lethal esophagitis. […] Control tumor-bearing mice received no irradiation.
compound,measurement,setting,value
"CC(C)C[C@@H](/C=C/CC(=O)NC1CC(C)(C)N([O])C(C)(C)C1)NC(=O)OC(C)(C)C [JP4-039, TEMPO-4-yl-(S,E)-5-(tert-butoxycarbonylamino)-7-methyloct-3-enamide]",protection of orthotopic 3LL cells from irradiation,"4 μg in 110 μl F15, 10 minutes before 0 or 15 Gy upper-body irradiation",did not protect 3LL cells from irradiation
same,survival of 3LL tumor-bearing mice compared to F15 alone,"prior to 20 Gy thoracic irradiation, p=0.3693",did not survive significantly differently
